Measurements as given in patent US20240269139A1, “COMPOUNDS FOR TARGETED PROTEIN DEGRADATION OF KINASES” (DANA-FARBER CANCER INSTITUTE, INC., priority 2020, published 2024).
Read-outs that look alike come from different tables or passages of the source.

Legend:
Type in all cases: cell-based
[1] = biological target: T1, protein kinases (human kinome) (Homo sapiens, UniProt O14965)
T1 sequence (O14965 1-403): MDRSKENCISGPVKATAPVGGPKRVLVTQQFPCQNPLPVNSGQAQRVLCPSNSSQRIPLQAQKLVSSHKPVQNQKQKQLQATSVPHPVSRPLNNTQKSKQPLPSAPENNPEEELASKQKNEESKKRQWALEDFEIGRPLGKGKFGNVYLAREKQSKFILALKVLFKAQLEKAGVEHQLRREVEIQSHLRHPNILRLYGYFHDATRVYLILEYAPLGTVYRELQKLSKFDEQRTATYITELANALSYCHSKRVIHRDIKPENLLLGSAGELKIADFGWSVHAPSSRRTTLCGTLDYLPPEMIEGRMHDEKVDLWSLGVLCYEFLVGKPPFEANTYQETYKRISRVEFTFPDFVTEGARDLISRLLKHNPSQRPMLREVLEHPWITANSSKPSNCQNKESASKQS

[2] = test system: protein kinases (human kinome); conditions: for logFC of LIMK2: LIMK2 P53671-3; for logFC PDK3: PDK3 (Q15120-2)
[3] = biological target: protein kinases (human kinome) (Homo sapiens, UniProt P53671); conditions: for logFC LIMK2: LIMK2 (P53671), down; for logFC of LIMK2: LIMK2 P53671
protein kinases (human kinome) (Homo sapiens, UniProt P53671), sequence (P53671 whole entry): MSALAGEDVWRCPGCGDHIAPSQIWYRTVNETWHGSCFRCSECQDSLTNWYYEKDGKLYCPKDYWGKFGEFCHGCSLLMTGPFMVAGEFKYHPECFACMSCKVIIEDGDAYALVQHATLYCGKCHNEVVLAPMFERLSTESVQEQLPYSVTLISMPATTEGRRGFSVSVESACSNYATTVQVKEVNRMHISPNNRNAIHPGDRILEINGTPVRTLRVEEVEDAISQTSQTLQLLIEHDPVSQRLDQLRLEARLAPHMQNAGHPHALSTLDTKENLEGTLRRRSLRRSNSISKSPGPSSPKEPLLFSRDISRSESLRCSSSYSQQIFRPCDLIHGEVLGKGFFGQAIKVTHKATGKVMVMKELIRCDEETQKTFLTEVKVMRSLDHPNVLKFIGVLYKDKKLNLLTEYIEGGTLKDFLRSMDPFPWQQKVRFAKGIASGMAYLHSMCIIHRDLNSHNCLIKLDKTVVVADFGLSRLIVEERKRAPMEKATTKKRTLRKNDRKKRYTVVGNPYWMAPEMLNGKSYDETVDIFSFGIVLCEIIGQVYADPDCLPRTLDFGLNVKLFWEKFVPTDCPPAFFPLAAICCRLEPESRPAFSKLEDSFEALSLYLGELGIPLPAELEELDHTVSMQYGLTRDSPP

[4] = biological target: protein kinases (human kinome) (Homo sapiens, UniProt P16591)
protein kinases (human kinome) (Homo sapiens, UniProt P16591), sequence (P16591 whole entry): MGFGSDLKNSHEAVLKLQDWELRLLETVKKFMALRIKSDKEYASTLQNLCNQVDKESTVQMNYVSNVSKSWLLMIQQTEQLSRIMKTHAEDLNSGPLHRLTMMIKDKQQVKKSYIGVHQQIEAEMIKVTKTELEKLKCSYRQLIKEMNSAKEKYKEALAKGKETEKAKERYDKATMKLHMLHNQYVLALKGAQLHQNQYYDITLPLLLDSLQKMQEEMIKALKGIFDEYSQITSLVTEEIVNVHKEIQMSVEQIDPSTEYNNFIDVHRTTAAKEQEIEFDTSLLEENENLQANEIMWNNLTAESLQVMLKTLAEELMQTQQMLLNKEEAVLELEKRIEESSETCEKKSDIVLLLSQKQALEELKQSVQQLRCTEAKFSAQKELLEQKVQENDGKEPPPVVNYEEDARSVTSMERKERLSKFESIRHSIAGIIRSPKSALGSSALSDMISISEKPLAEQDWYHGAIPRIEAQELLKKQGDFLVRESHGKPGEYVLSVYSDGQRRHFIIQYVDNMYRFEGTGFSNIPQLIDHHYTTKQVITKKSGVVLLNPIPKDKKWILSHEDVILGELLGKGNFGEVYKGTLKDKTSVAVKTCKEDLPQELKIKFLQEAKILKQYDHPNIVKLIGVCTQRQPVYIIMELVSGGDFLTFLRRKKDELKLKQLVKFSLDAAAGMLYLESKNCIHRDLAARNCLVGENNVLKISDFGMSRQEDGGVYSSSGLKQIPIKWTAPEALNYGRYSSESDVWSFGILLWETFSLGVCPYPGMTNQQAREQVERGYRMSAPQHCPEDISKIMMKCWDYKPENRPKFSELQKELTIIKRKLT

[5] = biological target: protein kinases (human kinome) (Homo sapiens, UniProt P51451)
protein kinases (human kinome) (Homo sapiens, UniProt P51451), sequence (P51451 whole entry): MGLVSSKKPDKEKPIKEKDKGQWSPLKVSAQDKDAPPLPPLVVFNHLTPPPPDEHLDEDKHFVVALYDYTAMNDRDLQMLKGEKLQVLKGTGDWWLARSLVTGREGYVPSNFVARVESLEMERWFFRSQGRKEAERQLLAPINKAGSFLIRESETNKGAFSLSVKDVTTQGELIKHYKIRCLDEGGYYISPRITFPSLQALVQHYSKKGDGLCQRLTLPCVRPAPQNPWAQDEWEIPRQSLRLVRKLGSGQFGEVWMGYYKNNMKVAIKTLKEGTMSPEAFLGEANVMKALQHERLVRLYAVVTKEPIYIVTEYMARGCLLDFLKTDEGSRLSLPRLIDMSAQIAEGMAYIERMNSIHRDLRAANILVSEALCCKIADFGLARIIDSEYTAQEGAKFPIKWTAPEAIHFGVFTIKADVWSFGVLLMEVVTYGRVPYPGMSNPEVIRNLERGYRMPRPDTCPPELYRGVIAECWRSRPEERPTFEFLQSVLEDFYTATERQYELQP

[6] = AURKB Q96GD4-5, experiment wp134

SMILES: O=C(COc1cccc2c1C(=O)N(C1CCC(=O)NC1=O)C2=O)NCCCCCCCN1CCc2cc(Nc3ncc(C4CC4)c(NCCCNC(=O)C4CCC4)n3)ccc2C1 (centres unmarked) [BSJ.04.178]
- logFC AURKA (O14965) ([1]; experiment wp134): −0.4772
- logFC [2, 6]: −0.5074
- logFC AURKB [2, 6]: −0.5074
- logFC ([2]; CDK9 (P50750-2) protein abundance, degrader vs DMSO, down): −1.43
- logFC ([2]; MARK3 (P27448-5), experiment wp134): −0.4977
- logFC CDK9 (P50750-2) ([2]; experiment wp134): −1.43
- logFC MARK3 (P27448-5) ([2]; experiment wp134, direction of change down): −0.4977

SMILES: Cc1ccc(NC(=O)c2cccc(C(F)(F)F)c2)cc1N1Cc2cnc(Nc3ccc(N4CCN(CCCCCCOc5cccc6c5C(=O)N(C5CCC(=O)NC5=O)C6=O)CC4)nc3)nc2N(C)C1=O (centres unmarked) [DB0663]
- logFC LIMK2 ([3]; experiment wp045): −1.367
- logFC of LIMK2 ([3]; experiment wp045): −1.367
- logFC of FER (P16591-1) ([4]; Experiment wp045, down): −0.9581
- logFC of FER ([4]; FER P16591-1, experiment wp045): −0.9581
- logFC of SRC ([2]; Accession P12931-2, experiment wp045): −0.4247
- logFC MAP3K20 (Q9NYL2-2) ([2]; Experiment wp046): −0.8012
- logFC LCK ([2]; LCK, accession P06239-3, experiment wp045, direction of change down): −0.5823
- logFC ([2]; SRC (P12931-2) protein abundance, degrader vs DMSO, down): −0.4247
- logFC ([2]; TNK2 (Q07912-3), experiment wp045, direction down): −0.9271
- logFC TNK2 ([2]; TNK2 Q07912-3, experiment wp045): −0.9271
- kinases the bifunctional compound degrades ([2]; as stated for the structure in the embodiments): CDK4, BLK, FER, LIMK2, GAK, CSK, SIK2, LCK, PTK2B, SRC, ABL2, MAPK14,a MAPK9, MAP4K2, MKNK2, MAP3K20, and TNK2
- logFC MAP3K20 (Q9NYL2-2) ([2]; experiment wp045): −0.8012
- logFC LCK (P06239-3) ([2]; experiment wp045, direction of change down): −0.5823
- Kinase hits ([2]; kinases significantly downregulated vs DMSO (fold change cutoff −1.25, P-value<0.01), ≤8 h, 0.1-5 μM degrader, 7 cell lines): CDK4, BLK, FER, LIMK2, GAK, CSK, SIK2, LCK, PTK2B, SRC, ABL2, MAPK14.a MAPK9, MAP4K2, MKNK2, MAP3K20, TNK2
- Total no. kinase hits ([2]; number of degraded kinases per library compound): 17
- logFC of BLK ([5]; BLK P51451, experiment wp045): −1.058
- logFC of BLK (P51451) ([5]; Experiment wp045, down): −1.058

SMILES: CC(C)(C)c1nc(-c2cccc(NS(=O)(=O)c3c(F)cccc3F)c2F)c(-c2ccnc(NCCOCCNC(=O)CCOCCOCCNc3cccc4c3C(=O)N(C3CCC(=O)NC3=O)C4=O)n2)s1 (centres unmarked) [DD.03.106]
- logFC LIMK2 ([3]; experiment wp137): −1.026
- logFC of LIMK2 ([3]; experiment wp137): −1.026
- logFC AURKA (O14965) ([1]; experiment wp147, 4 uM): −0.3302
- logFC ([2]; ACAD10 (Q6JQN1-5), experiment wp147, 4 uM): −0.7404
- logFC of CDK17 ([2]; Accession Q00537-2, experiment wp137): −0.8682
- logFC MAP3K20 (Q9NYL2-2) ([2]; Experiment wp147, 2 uM): −0.7388
- logFC MAP3K20 (Q9NYL2-2) ([2]; Experiment wp147, 4 uM): −0.4901
- logFC ([2]; GK P32189-3, experiment wp147, 4 uM): −0.4811
- logFC ([2]; LIMK2 (P53671-3), experiment wp047, direction down): −0.962
- logFC ([2]; LIMK2 (P53671-3), experiment wp147, 1 uM, direction down): −0.8736
- logFC ([2]; LIMK2 (P53671-3), experiment wp147, 2 uM, direction down): −1.082
- logFC ([2]; LIMK2 (P53671-3), experiment wp147, 4 uM, direction down): −0.9319
- logFC of LIMK2 ([2]; experiment wp047): −0.962
- logFC of LIMK2 ([2]; experiment wp147, 1 uM): −0.8736
- logFC of LIMK2 ([2]; experiment wp147, 2 uM): −1.082
- logFC of LIMK2 ([2]; experiment wp147, 4 uM): −0.9319
- logFC PDK3 ([2]; experiment wp137): −0.3571
- logFC PDK3 ([2]; experiment wp147, 4 uM): −0.6564
- logFC CDK16 (Q00536-2) ([2]; experiment wp137): −1.175
- logFC PDK3 (Q15120-2) ([2]; experiment wp137): −0.3571
- logFC of CDK17 (Q00537-2) ([2]; experiment wp137): −0.8682
- logFC CDK16 (Q00536-2) ([2]; experiment wp147, 1 uM): −0.5427
- logFC CDK16 (Q00536-2) ([2]; experiment wp147, 2 uM): −0.5385
- logFC MAP3K20 (Q9NYL2-2) ([2]; experiment wp147, 2 uM): −0.7388
- logFC CDK16 (Q00536-2) ([2]; experiment wp147, 4 uM): −0.4393
- logFC MAP3K20 (Q9NYL2-2) ([2]; experiment wp147, 4 uM): −0.4901

SMILES: Cc1cnc(Nc2ccc(N3CCN(CCOCCOCCNC(=O)COc4cccc5c4C(=O)N(C4CCC(=O)NC4=O)C5=O)CC3)cc2)nc1Nc1cccc(S(=O)(=O)NC(C)(C)C)c1 (centres unmarked) [JWG.118]
- logFC AURKA (O14965) ([1]; experiment wp071): −0.8861
- logFC ([2]; GK P32189-3, experiment wp071): −0.4317

SMILES: CNC(=O)c1ccccc1Nc1cc(Nc2ccc(N3CCN(CCOCCOCCNC(=O)CNc4cccc5c4C(=O)N(C4CCC(=O)NC4=O)C5=O)CC3)cc2OC)ncc1C(F)(F)F (centres unmarked) [MFH.5.103.1]
- logFC AURKA (O14965) ([1]; experiment wp076): −0.9893
- logFC AURKA (O14965) ([1]; experiment wp078): −0.9893
- logFC RPS6KA1 ([2]; RPS6KA1 (Q15418-2), experiment wp076): −1.583
- logFC RPS6KA1 (Q15418-2) ([2]; experiment wp076): −1.583
